Test results as given in patent US11672251B2, “Herbicidally active pyridyl-/pyrimidyl-pyrimidine derivatives” (Syngenta Participations AG, priority 2017, dated 2023).

Key:
Assay type in all cases: in vivo
[1] = tested on: Triticum aestivium (TRZAW); assay: B1 pre-emergence herbicidal activity; conditions: Test 1b, rate 1000 g/ha, evaluated after 13 days, scale 5=total damage to plant, 0=no damage to plant
Method: (§1) Seeds of a variety of test species were sown in standard soil in pots: Triticum aestivium (TRZAW), Avena fatua (AVEFA), Alopecurus myosuroides (ALOMY), Echinochloa crus-galli (ECHCG), Lolium perenne (LOLPE), Zea Mays (ZEAMX), Abutilon theophrasti (ABUTH), Amaranthus retroflexus (AMARE) and Setaria faberi (SETFA). After cultivation for one day (pre-emergence) under controlled conditions in a glasshouse (at 24/16° C., day/night; 14 hours light; 65% humidity), the plants were sprayed with an aqueous spray solution derived from the formulation of the technical active ingredient in acetone/water (50:50) solution containing 0.5% Tween 20 (polyoxyethelyene sorbitan monolaurate, CAS RN 9005-64-5). The test plants were then grown in a glasshouse under controlled conditions (at 24/16° C., day/night; 14 hours light; 65% humidity) and watered twice daily. After 13 days, the test was evaluated (5=total damage to plant; 0=no damage to plant).

[2] = tested on: Echinochloa crus-galli (ECHCG); assay: B1 pre-emergence herbicidal activity; conditions: Test 1b, rate 1000 g/ha, evaluated after 13 days, scale 5=total damage to plant, 0=no damage to plant
Method: as §1

Avena fatua (AVEFA) [3] = assay: B1 pre-emergence herbicidal activity; conditions: Test 1b, rate 1000 g/ha, evaluated after 13 days, scale 5=total damage to plant, 0=no damage to plant
Method: as §1

Setaria faberi (SETFA) [4] = assay: B1 pre-emergence herbicidal activity; conditions: Test 1b, rate 1000 g/ha, evaluated after 13 days, scale 5=total damage to plant, 0=no damage to plant
Method: as §1

Lolium perenne (LOLPE) [5] = assay: B1 pre-emergence herbicidal activity; conditions: Test 1b, rate 1000 g/ha, evaluated after 13 days, scale 5=total damage to plant, 0=no damage to plant
Method: as §1

[6] = tested on: Alopecurus myosuroides (ALOMY); assay: B1 pre-emergence herbicidal activity; conditions: Test 1b, rate 1000 g/ha, evaluated after 13 days, scale 5=total damage to plant, 0=no damage to plant
Method: as §1

[7] = tested on: Triticum aestivium (TRZAW); assay: B2 post-emergence herbicidal activity; conditions: Test B2b; post-emergence (sprayed after 8 days cultivation); rate 1000 g/ha; evaluated after 13 days; scale 5=total damage to plant, 0=no damage to plant
Method: (§2) Seeds of a variety of test species were sown in standard soil in pots: Triticum aestivium (TRZAW), Avena fatua (AVEFA), Alopecurus myosuroides (ALOMY), Echinochloa crus-galli (ECHCG), Lolium perenne (LOLPE), Zea Mays (ZEAMX), Abutilon theophrasti (ABUTH), Amaranthus retroflexus (AMARE) and Setaria faberi (SETFA). After 8 days cultivation (post-emergence) under controlled conditions in a glasshouse (at 24/16° C., day/night; 14 hours light; 65% humidity), the plants were sprayed with an aqueous spray solution derived from the formulation of the technical active ingredient in acetone/water (50:50) solution containing 0.5% Tween 20 (polyoxyethelyene sorbitan monolaurate, CAS RN 9005-64-5). The test plants were then grown in a glasshouse under controlled conditions (at 24/16° C., day/night; 14 hours light; 65% humidity) and watered twice daily. After 13 days, the test was evaluated (5=total damage to plant; 0=no damage to plant).

[8] = tested on: Echinochloa crus-galli (ECHCG); assay: B2 post-emergence herbicidal activity; conditions: Test B2b; post-emergence (sprayed after 8 days cultivation); rate 1000 g/ha; evaluated after 13 days; scale 5=total damage to plant, 0=no damage to plant
Method: as §2

Avena fatua (AVEFA) [9] = assay: B2 post-emergence herbicidal activity; conditions: Test B2b; post-emergence (sprayed after 8 days cultivation); rate 1000 g/ha; evaluated after 13 days; scale 5=total damage to plant, 0=no damage to plant
Method: as §2

Setaria faberi (SETFA) [10] = assay: B2 post-emergence herbicidal activity; conditions: Test B2b; post-emergence (sprayed after 8 days cultivation); rate 1000 g/ha; evaluated after 13 days; scale 5=total damage to plant, 0=no damage to plant
Method: as §2

Lolium perenne (LOLPE) [11] = assay: B2 post-emergence herbicidal activity; conditions: Test B2b; post-emergence (sprayed after 8 days cultivation); rate 1000 g/ha; evaluated after 13 days; scale 5=total damage to plant, 0=no damage to plant
Method: as §2

[12] = tested on: Alopecurus myosuroides (ALOMY); assay: B2 post-emergence herbicidal activity; conditions: Test B2b; post-emergence (sprayed after 8 days cultivation); rate 1000 g/ha; evaluated after 13 days; scale 5=total damage to plant, 0=no damage to plant
Method: as §2

| Structure (SMILES) | Control after pre-emergence application, damage score: TRAZW [1] | Control after pre-emergence application, damage score: ECHCG [2] | Control after pre-emergence application, damage score: AVEFA (Avena fatua (AVEFA) [3]) | Control after pre-emergence application, damage score: SETFA (Setaria faberi (SETFA) [4]) | Control after pre-emergence application, damage score: LOLPE (Lolium perenne (LOLPE) [5]) | Control after pre-emergence application, damage score: ALOMY [6] | Control after post-emergence application, damage score: TRAZW [7] | Control after post-emergence application, damage score: ECHCG [8] | Control after post-emergence application, damage score: AVEFA (Avena fatua (AVEFA) [9]) | Control after post-emergence application, damage score: SETFA (Setaria faberi (SETFA) [10]) | Control after post-emergence application, damage score: LOLPE (Lolium perenne (LOLPE) [11]) | Control after post-emergence application, damage score: ALOMY [12] |
| --- | --- | --- | --- | --- | --- | --- | --- | --- | --- | --- | --- | --- |
| Cc1nc(-c2cncnc2)ncc1N [Compound D3, 4-methyl-2-pyrimidin-5-yl-pyrimidin-5-amine] | 0 | 1 | 0 | 2 | 1 | 0 | 0 | 2 | 1 | 3 | 1 | 1 |
| CNc1cnc(-c2cncnc2)nc1C [Compound D4] | 0 | 0 | 0 | 2 | 1 | 0 | 0 | 1 | 0 | 1 | 1 | 1 |
| Nc1cnc(-c2cncc(F)c2)nc1C(F)(F)F [Compound D5, 2-(5-fluoro-3-pyridyl)-4-(trifluoromethyl)pyrimidin-5-amine] | 0 | 4 | 4 | 5 | 1 | 1 | 1 | 4 | 4 | 5 | 3 | 1 |
| CNc1cnc(-c2cncc(F)c2)nc1C(F)(F)F [Compound D6] | 0 | 4 | 1 | 4 | 1 | 0 | 1 | 5 | 2 | 5 | 3 | 0 |
| C=CCNc1cnc(-c2cncnc2)nc1C [Compound D7] | 0 | 2 | 1 | 4 | 1 | 0 | 1 | 2 | 1 | 4 | 0 | 0 |
| CN(C)c1cnc(-c2cncc(F)c2)nc1C(F)(F)F [Compound D8] | 0 | 2 | 1 | 4 | 1 | 0 | 0 | 4 | 1 | 5 | 0 | 0 |
| Nc1cnc(-c2cncnc2)nc1C(F)(F)F [Compound D9] | 0 | 3 | 2 | 4 | 1 | 0 | 0 | 3 | 3 | 5 | 2 | 0 |
| N#Cc1cncc(-c2ncc(N)c(C(F)(F)F)n2)c1 [Compound D10, 5-[5-amino-4-(trifluoromethyl)pyrimidin-2-yl]pyridine-3-carbonitrile] | 0 | 0 | 0 | 3 | 0 | 0 | 1 | 3 | 1 | 4 | 1 | 0 |
| CCNc1cnc(-c2cncc(N)c2)nc1C(F)(F)F [Compound D11] | 0 | 3 | 0 | 5 | 0 | 0 | 1 | 5 | 2 | 5 | 1 | 1 |
| CCN(CC)c1cnc(-c2cncc(F)c2)nc1C(F)(F)F [Compound D12] | 0 | 1 | 0 | 5 | 0 | 0 | 1 | 5 | 3 | 5 | 2 | 0 |
| Fc1cncc(-c2ncc(NCc3nccs3)c(C(F)(F)F)n2)c1 [Compound D15] | 0 | 4 | 1 | 5 | 0 | 0 | 0 | 5 | – | 5 | 2 | 1 |
